The test system of data set [1] is mouse macrophages (Balb C). Description: In vitro cytotoxicity using mouse macrophages (acute toxicity), MTT assay. It counts as cell-based. How it is done:
(§1) All steroids were dissolved in ethanol and diluted to appropriate concentration: 0.01, 0.5, 1.0, 2.0, 5.0 μg/ml from the two stock solution of 1 mg/ml and […]. Stocks were maintained at room temperature.
(§2) […] Approximately 1 ml of Phosphate buffer saline preincubated at 37° C. was injected into cavity. The abdomen was lavaged for 10 min and fluid along with macrophages were taken out using a syringe into polypropylene tube. The phosphate solution was spun at 800 rpm for 5-10 min and cells were resuspended in 1 ml RPMI media. Cell number was counted using haemocytometer.
(§3) Cells (mouse macrophages) were plated at a density of 5×10^3 cells/well in 96 plate at 37° C. in 5% CO2. Cells were exposed in graded concentration of compounds at designated various concentration. Each concentration was tested in triplicate wells. After 48 hr fresh MTT 20 μl (1 mg/ml) was added directly to all the wells and culture was incubated for 4 hr at 37° C. During this incubation, MTT was converted into a water insoluble formazan complex by metabolic activity of viable cells. Formazan crystal were taken and dissolved in 100 μl of DMSO, which give light pink colour. The absorbance of each well was read on Elisa plate reader (Merck) at 570 nm. The spectrometer was calibrated to zero absorbance using culture medium without cells. The relative cell viability (%) related to control well containing cell culture medium without drug was calculated by [A]test/[A]control×100. % Cell Viability=[A]test/[A]control×100 [A]test=absorbance test sample [A]control=absorbance control sample Results: LC50: Concentration of the Compound in μg/ml (μm), Lethal to 50% Population of Cells.
(§4) The assay quantifies the viable cells, after […] incubation of cells with five different concentrations.
A general note: Formazan colour is commonly taken as a measure of viable cells.

Assay in data set [2]: as above
It is filed as cell-based. Conditions: both sexes, Balb C; mouse macrophages, from linear equation of MTT data; read-out: LC50 (concentration lethal to 50% population of cells). How it is done:
as §1, §2, §3, §4

Data set [3] relates to human prostate cancer cell line (DU-145). Description: Growth inhibitory activity assay (MTT assay), in vitro antiproliferative activity. It is filed as cell-based. The conditions noted are these: DU-145 cells; for % growth inhibition (mean ± SEM) / inhibition at 5 µg/mL: 5.0 μg/ml; for % growth inhibition (mean ± SEM) / inhibition at 0.01 µg/mL / inhibition at 0.5 µg/mL / inhibition at 1 µg/mL / inhibition at 2 µg/mL / inhibition at 5 µg/mL: 48 hr; for antiproliferative activity (in words): 0.01-5.0 μg/ml; for inhibition at 0.01 µg/mL / inhibition at 0.5 µg/mL / inhibition at 1 µg/mL / inhibition at 2 µg/mL / inhibition at 5 µg/mL: Homo sapiens, DU-145, 48 h, read-out: % growth inhibition (mean ± SEM); for inhibition at 0.01 µg/mL: 0.01 μg/ml; for inhibition at 0.5 µg/mL: 0.5 μg/ml; for inhibition at 1 µg/mL: 1.0 μg/ml; for inhibition at 2 µg/mL: 2.0 μg/ml. How it is done: 1) In Vitro Antiproliferative Activity Against Human Prostate Cancer Cell Line (DU-145)
Compounds were screened for antiproliferative activity on human prostate cell line DU-145 at National Centre of Human Genome Studies and Research. Panjab University, Chandigarh. All the compounds (10 to 16), Finasteride and starting material (9) were tested at five different concentrations: 0.01, 0.5, 1.0, 2.0, and 5.0 μg/ml. Finasteride was the positive control in this growth inhibitory assay.
Growth Inhibitory Activity Assay (MTT Assay)
We investigated the effect of newly synthesized compounds on cell growth inhibition using MTT assay. This assay quantifies the viable cells by observing the reduction of tetrazolium salt, MTT to formazan crystals by the live cells. Based on the absorbance of the cell sample after the test is carried out, cell viable can be measured [Loveland, B. E.; Jones, T. G.; Mackay. I. R.; Vaillant, F.; Wang, Z. X.; Hertzog, P. J. Biochem. International 1992, 27, 501 and Wright, S. A.; Thomas, L. N.; Douglas, R. C.; Lazier, C. B.; Rittmaster, R. S. J. Clin. Invest. 1996, 98, 2558]. Cells were cultured at a density of 5×10^3 cells/well in 96 well plates at 37° C. in 5.0% CO2 atmosphere and were allowed to attach for 24 hr. The cells were treated in triplicate with graded concentration of sample and reference drug Finasteride at 37° C. for 48 hr. A 20 μl aliquot of MTT solution was added directly to all the appropriate wells. Following 4 hr of incubation at […], the media was removed and formazan crystals, which results from the reduction of MTT by active cell were dissolved in 100 μl DMSO and vigorously mixed to dissolve the reacted dye. The absorbance of each well was read on Elisa plate reader (Merck) at 570 nm. The spectrometer was calibrated to zero absorbance using culture medium without cells. The relative cell viability (%) related to control well containing cell culture medium without drug was calculated by [A]test/[A]control×100. % Growth Inhibition=[OD]control−[OD]test/[OD]control×100 Results: […]

The next data set relates to 5α-reductase. Description: In vivo effect on serum testosterone level (5α-reductase inhibitory activity), ELISA. More on the design: species or system Sprague Dawley rats. Conditions: for Serum levels of Testosterone, T: Sprague Dawley male rats, intraperitoneal, Finasteride 40 mg/kg and equimolar dose of compounds, 6 hr after treatment; for effect on serum testosterone level (in words): rats, 6 hr post dose, compared to control. How it is done: Animals (Sprague Dawley male rats weighing 150-200 g) were divided into 3 groups; vehicle (control), Finasteride (standard), treated (test sample) and each group consist of 5 animals. Sprague Dawley rats were treated intraperitoneally with Finasteride 40 mg/kg and equimolar dose of compounds. After 6 hr of treatment, blood was withdrawn by cardiac puncture under diethyl ether anesthesia and serum was separated from cells by centrifugation. Plasma testosterone values were obtained by ELISA plate reader at […] and are given in ng/ml.
The aliquots of 50 μl of each of standards, control and unknown (serum samples) were added to Testosterone Antibody coated wells. 100 μl of HRP-testosterone conjugate was added to all the wells and the plates were shaken gently on a shaker for proper mixing of the reagents. Following 4 hr of incubation at 37° C., the incubation mixture was removed. The wells were washed with phosphate buffer for 5-6 times (200 μl each time), followed by addition of 100 μl of TMB/H2O2 substrate in each of the wells. The plates were further incubated at 37° C. for 20 minutes. At the end of incubation reaction was stopped by using 100 μl of 0.5 M H2SO4 as stopping reagent. The absorbance of each well was read on Elisa plate reader at 450 nm [Rassaie, M. J.; Kumari, G. L.; Pandey, P. K.; Gupta, N.; Kochupillai, N.; Grover, P. K. Steroids 1992, 57, 288 and Hosoda, H.; Yoshida, H.; Sakai, Y.; Miyairi, S.; Nambara, T. Chem. Pharm. Bull. 1980, 28, 3035]
Intact male rats (Sprague Dawley, 200-250 g) were used in the designed study in which various compounds were compared for in vivo 5α-reductase inhibitory potency, as judged by the their ability to attenuate the conversion of testosterone into dihydrotestosterone (DHT). […] The procedure measure T equally well, and method met all the requirement of precision, accuracy, sensitivity and selectivity.

Where [4] appears, read: both, Balb C, mouse, 48 h, 0.01 μg/ml.
[5] abbreviates: both, Balb C, mouse, 48 h, 0.5 μg/ml.
Where [6] appears, read: both, Balb C, mouse, 48 h, 1 μg/ml.
Setting [7] is: both, Balb C, mouse, 48 h, 2 μg/ml.
The mark [8] stands for this setting: both, Balb C, mouse, 48 h, 5 μg/ml.

Some results are limits rather than exact numbers.

Take `C[C@]12CC[C@H](OC(=O)c3ccc(Cl)cc3)CC1=CC[C@@H]1[C@@H]2CC[C@]2(C)C(=NO)CC[C@@H]12` [Compound 10, 17-oximino-5-androsten-3β-yl 4-chlorobenzoate]: in data set [1] (setting [4]), the “% viable Cells (mean ± SEM)” value came to 88.22 ± 0.41%. The “% viable Cells (mean ± SEM)” value in data set [1] (setting [5]) amounted to 87.21 ± 0.46%. Also, the “% viable Cells (mean ± SEM)” value in data set [1] (setting [6]) was 77.40 ± 0.43%. For the same molecule, the “% viable Cells (mean ± SEM)” value in data set [1] (setting [7]) worked out at 77.14 ± 0.21%. The “% viable Cells (mean ± SEM)” value in data set [1] (setting [8]) was 73.149 ± 0.13%. Moreover, the CC50 at 48 h in data set [2] amounted to 24 µM. In data set [3], the “% growth inhibition (mean ± SEM)” value came out at 84.47 ± 0.74%, the “antiproliferative activity (in words)” value is recorded as “relatively less activity than above compounds but still better than Finasteride”, the inhibition at 0.01 µg/mL amounted to 43.4 ± 0.77% and the inhibition at 0.5 µg/mL stood at 57.1 ± 5.96%. In data set [3], the inhibition at 1 µg/mL worked out at 64.9 ± 7.4%, the inhibition at 2 µg/mL was found to be 69.2 ± 7.48% and the inhibition at 5 µg/mL lay within 81 to 84%. In addition, in the data set on 5α-reductase, the “Serum levels of Testosterone, T” value was determined as 0.95 ng/mL and the “effect on serum testosterone level (in words)” value (“effect” below) is “loss of activity”.
Consider `C[C@]12CC[C@H](OC(=O)COc3ccccc3)CC1=CC[C@@H]1[C@@H]2CC[C@]2(C)C(=NO)CC[C@@H]12` [Compound 16, 17-oximino-5-androsten-3β-yl phenoxyacetate], for which the “% viable Cells (mean ± SEM)” value in data set [1] (mouse macrophages, 0.01 μg/ml) came out at 80.79 ± 2.30%. In addition, in data set [1] (mouse macrophages, 0.5 μg/ml), the “% viable Cells (mean ± SEM)” value worked out at 78.32 ± 0.89%. For the same molecule, the “% viable Cells (mean ± SEM)” value in data set [1] (mouse macrophages, 1.0 μg/ml) stood at 77.04 ± 0.23%. Moreover, the “% viable Cells (mean ± SEM)” value in data set [1] (mouse macrophages, 2.0 μg/ml) stood at 77.31 ± 0.37%. The “% viable Cells (mean ± SEM)” value in data set [1] (mouse macrophages, 5.0 μg/ml) stood at 77.37 ± 0.16%. Besides, the “toxicity to mouse macrophages (in words)” value in data set [1] (mouse macrophages, 0.01-5.0 μg/ml) is listed as “non toxic to mouse macrophages”. Also, in data set [2], the CC50 at 48 h was determined as 89 µM. In data set [3], the inhibition at 0.01 µg/mL is 33.6 ± 7.66%, the inhibition at 0.5 µg/mL amounted to 24.2 ± 6.37%, the inhibition at 1 µg/mL came to 36.2 ± 9.85% and the inhibition at 2 µg/mL was 76.5 ± 5.58%. The inhibition at 5 µg/mL in data set [3] amounted to 87.8 ± 1.11%. In the data set on 5α-reductase, the “Serum levels of Testosterone, T” value was found to be 0.85 ng/mL and the “effect” value was “Significant increase in level of serum testosterone level”.
In the case of `C[C@]12CC[C@H](OC(=O)c3ccc(N)cc3)CC1=CC[C@@H]1[C@@H]2CC[C@]2(C)C(=NO)CC[C@@H]12` [Compound 14, 17-oximino-5-androsten-3β-yl 4-aminobenzoate], the “% viable Cells (mean ± SEM)” value in data set [1] (setting [4]) came out at 85.75 ± 0.28%. In data set [1] (setting [5]), the “% viable Cells (mean ± SEM)” value was found to be 77.69 ± 0.38%. Also, the “% viable Cells (mean ± SEM)” value in data set [1] (setting [6]) worked out at 76.80 ± 0.23%. In data set [1] (setting [7]), the “% viable Cells (mean ± SEM)” value was 75.82 ± 0.33%. Besides, the “% viable Cells (mean ± SEM)” value in data set [1] (setting [8]) was found to be 72.82 ± 0.28%. Also, the CC50 at 48 h in data set [2] came out at 29.4 µM. For the same molecule, in data set [3], the “% growth inhibition (mean ± SEM)” value worked out at 91.02 ± 1.25%, the “antiproliferative activity (in words)” value is on record as “more potent than the reference Finasteride”, the inhibition at 0.01 µg/mL came out at 71.8 ± 4.24% and the inhibition at 0.5 µg/mL stood at 62.1 ± 11.4%. Moreover, in data set [3], the inhibition at 1 µg/mL stood at 79.5 ± 7.76%, the inhibition at 2 µg/mL is 83.9 ± 6.7% and the inhibition at 5 µg/mL was above 90%. In addition, in the data set with 5α-reductase, the “Serum levels of Testosterone, T” value amounted to 1.19 ng/mL and the “effect” value is given as “increased activity”.
On to `C[C@]12CC[C@H](OC(=O)c3ccc([N+](=O)[O-])cc3)CC1=CC[C@@H]1[C@@H]2CC[C@]2(C)C(=NO)CC[C@@H]12` [Compound 11, 17-oximino-5-androsten-3β-yl 4-nitrobenzoate], for which the “% viable Cells (mean ± SEM)” value in data set [1] (setting [4]) worked out at 88.79 ± 0.19%. Also, the “% viable Cells (mean ± SEM)” value in data set [1] (setting [5]) worked out at 86.50 ± 0.107%. The “% viable Cells (mean ± SEM)” value in data set [1] (setting [6]) was 76.74 ± 0.107%. In data set [1] (setting [7]), the “% viable Cells (mean ± SEM)” value turned out to be 76.30 ± 0.46%. The “% viable Cells (mean ± SEM)” value in data set [1] (setting [8]) came to 75.85 ± 0.259%. The CC50 at 48 h in data set [2] was found to be 19.5 µM. In data set [3], the “% growth inhibition (mean ± SEM)” value is 81.53 ± 1.79%, the “antiproliferative activity (in words)” value was “relatively less activity than above compounds but still better than Finasteride”, the inhibition at 0.01 µg/mL worked out at 41.5 ± 0.71% and the inhibition at 0.5 µg/mL turned out to be 60.5 ± 4.9%. Besides, in data set [3], the inhibition at 1 µg/mL stood at 67.3 ± 3.7%, the inhibition at 2 µg/mL was determined as 74 ± 0.77% and the inhibition at 5 µg/mL lay in the range of 81 to 84%. Also, in the data set with 5α-reductase, the “Serum levels of Testosterone, T” value is 1.01 ng/mL and the “effect” value is listed as “loss of activity”.

As a reminder, the inhibition is the percentage by which the read-out fell short of the control.

The values are drawn from patent US8435975B2, “Steroidal esters of 17-oximino-5-androsten-3beta-ol” (Council of Scientific & Industrial Research, priority 2007, dated 2013).
